Ends that are not written are not given here. Peptide text beside a SMILES is read from it. * marks the point of attachment. Biotin = O=C1N[C@H]2[C@H](CS[C@H]2CCCCC(=O)*)N1

This note sets out measurements from patent publication US20050282743A1, “Molecular interactions in cells” (Arbor Vita Corporation, priority 2001, published 2005).

What all share (assay): G' assay (10 uM PL peptide), results of TABLE 7 and TABLE 12
What all share (type): binding

In test [1] the target is T1, PDZ protein (GST-PDZ fusion) (Homo sapiens, UniProt P50479).
T1 construct: made in house; host or cells: E. coli (DH5alpha, BL21 or JM109)
T1 sequence (P50479 1-330): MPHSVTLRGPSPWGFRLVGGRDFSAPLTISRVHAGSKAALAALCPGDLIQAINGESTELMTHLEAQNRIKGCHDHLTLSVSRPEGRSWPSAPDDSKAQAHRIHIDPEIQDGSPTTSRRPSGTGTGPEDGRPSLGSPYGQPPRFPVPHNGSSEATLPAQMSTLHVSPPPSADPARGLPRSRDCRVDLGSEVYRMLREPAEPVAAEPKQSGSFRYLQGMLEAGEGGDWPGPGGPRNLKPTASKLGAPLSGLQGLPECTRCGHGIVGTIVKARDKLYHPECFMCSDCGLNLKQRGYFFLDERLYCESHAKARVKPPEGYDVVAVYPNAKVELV
Conditions: PDZ LIM RIL, PDZ Domain 1. In short, it runs like this:
(§1)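 Same steps as the G-zero format, apart from a peptide concentration of 10 uM in place of 20 uM in step 2. Amino-terminally biotinylated PL peptides bind GST-PDZ fusions, and retained peptide is quantified by 450 nm absorbance.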

For test [2], the target named is T2, PDZ protein (GST-PDZ fusion) (Homo sapiens, UniProt Q9NSN8).
T2 construct: made in house; host or cells: E. coli (DH5alpha, BL21 or JM109)
T2 sequence (Q9NSN8 1-517): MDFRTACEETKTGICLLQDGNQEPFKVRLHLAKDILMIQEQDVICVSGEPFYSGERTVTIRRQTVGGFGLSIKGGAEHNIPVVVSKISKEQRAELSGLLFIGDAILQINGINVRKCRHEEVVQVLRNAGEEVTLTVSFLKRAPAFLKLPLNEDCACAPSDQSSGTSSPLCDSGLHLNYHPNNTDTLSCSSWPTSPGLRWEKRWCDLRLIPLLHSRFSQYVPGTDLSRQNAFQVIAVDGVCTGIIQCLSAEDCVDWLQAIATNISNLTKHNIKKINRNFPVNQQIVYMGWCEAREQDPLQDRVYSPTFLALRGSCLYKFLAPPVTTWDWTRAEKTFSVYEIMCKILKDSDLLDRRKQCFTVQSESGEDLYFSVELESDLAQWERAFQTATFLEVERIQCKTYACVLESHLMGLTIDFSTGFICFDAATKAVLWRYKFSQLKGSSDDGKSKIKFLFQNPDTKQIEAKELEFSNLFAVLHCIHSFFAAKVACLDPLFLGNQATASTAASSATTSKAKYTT
Conditions: PDZ Syntrophin gamma-1, PDZ Domain 1. An outline of the steps: as §1

Test [3] addresses T3, PDZ protein (GST-PDZ fusion) (Homo sapiens, UniProt Q9Y3R0).
T3 construct: made in house; host or cells: E. coli (DH5alpha, BL21 or JM109)
T3 sequence (Q9Y3R0 1-1128): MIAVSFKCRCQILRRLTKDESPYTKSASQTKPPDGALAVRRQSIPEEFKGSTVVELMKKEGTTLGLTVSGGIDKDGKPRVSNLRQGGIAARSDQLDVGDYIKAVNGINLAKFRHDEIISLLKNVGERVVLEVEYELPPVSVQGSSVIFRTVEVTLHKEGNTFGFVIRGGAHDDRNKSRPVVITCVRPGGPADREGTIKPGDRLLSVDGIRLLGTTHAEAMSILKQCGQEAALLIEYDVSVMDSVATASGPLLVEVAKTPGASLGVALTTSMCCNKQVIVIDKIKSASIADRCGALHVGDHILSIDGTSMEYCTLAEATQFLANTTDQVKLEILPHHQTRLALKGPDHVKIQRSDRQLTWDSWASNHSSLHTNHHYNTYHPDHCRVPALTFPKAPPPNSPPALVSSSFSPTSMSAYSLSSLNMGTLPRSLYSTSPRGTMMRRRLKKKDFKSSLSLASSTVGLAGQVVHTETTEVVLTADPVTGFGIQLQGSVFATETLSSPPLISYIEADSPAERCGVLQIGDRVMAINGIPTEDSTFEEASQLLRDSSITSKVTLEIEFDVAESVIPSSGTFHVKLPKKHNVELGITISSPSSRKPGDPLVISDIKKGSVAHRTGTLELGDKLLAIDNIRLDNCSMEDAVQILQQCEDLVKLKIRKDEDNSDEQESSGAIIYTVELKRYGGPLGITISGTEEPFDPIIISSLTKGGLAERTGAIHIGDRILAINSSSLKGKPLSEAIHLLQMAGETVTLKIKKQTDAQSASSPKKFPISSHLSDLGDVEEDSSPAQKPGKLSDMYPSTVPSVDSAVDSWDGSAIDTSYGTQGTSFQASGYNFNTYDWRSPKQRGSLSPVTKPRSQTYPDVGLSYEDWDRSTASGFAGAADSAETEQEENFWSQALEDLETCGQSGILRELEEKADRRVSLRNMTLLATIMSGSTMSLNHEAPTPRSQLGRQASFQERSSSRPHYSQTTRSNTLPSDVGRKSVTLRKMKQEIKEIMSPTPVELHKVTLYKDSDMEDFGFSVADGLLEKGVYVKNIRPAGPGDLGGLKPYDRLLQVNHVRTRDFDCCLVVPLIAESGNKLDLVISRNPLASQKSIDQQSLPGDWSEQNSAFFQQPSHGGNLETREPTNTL
In short, it runs like this:
as §1

In the case of `CC(C)C[C@H](NC(=O)[C@H](CC(=O)O)NC(=O)[C@H](CO)NC(=O)[C@H](CCC(=O)O)NC(=O)CNC(=O)[C@H](Cc1ccc(O)cc1)NC(=O)[C@H](CC(C)C)NC(=O)[C@H](C)NC(=O)[C@H](CO)NC(=O)[C@H](CO)NC(=O)[C@H](Cc1ccccc1)NC(=O)[C@H](C)NC(=O)[C@H](C)NC(=O)[C@H](Cc1ccc(O)cc1)NC(=O)[C@H](CC(=O)O)NC(=O)[C@H](CC(C)C)NC(=O)[C@H](C)NC(=O)CNC(=O)[C@@H]1CCCN1C(=O)[C@@H](NC(=O)CCCC[C@@H]1SC[C@@H]2NC(=O)N[C@@H]21)C(C)C)C(=O)O` [a-actinin 2] (Biotin-VPGALDYAAFSSALYGESDL-OH; C-terminus assumed), the Classification in test [1] is reported as 5 (A450 nm of 4 more than 2× repeated); in test [2], 1 (A450 nm 0-1).

For `CC[C@H](C)[C@H](NC(=O)[C@H](CCC(N)=O)NC(=O)[C@@H](NC(=O)[C@H](Cc1c[nH]cn1)NC(=O)[C@H](CCC(N)=O)NC(=O)[C@H](CC(=O)O)NC(=O)[C@H](CCC(=O)O)NC(=O)[C@H](CC(=O)O)NC(=O)[C@H](Cc1ccccc1)NC(=O)[C@@H]1CCCN1C(=O)[C@H](CCC(=O)O)NC(=O)[C@H](CC(N)=O)NC(=O)[C@H](CCC(=O)O)NC(=O)[C@@H]1CCCN1C(=O)[C@H](CC(=O)O)NC(=O)[C@H](CO)NC(=O)[C@H](CC(=O)O)NC(=O)CCCC[C@@H]1SC[C@@H]2NC(=O)N[C@@H]21)[C@@H](C)O)C(=O)N[C@H](C(=O)N[C@@H](CCCCN)C(=O)N[C@H](C(=O)O)C(C)C)[C@@H](C)O` [PTEN], the Classification is listed as 1 (A450 nm 0-1) in test [2] and 1 (A450 nm 0-1) in test [3] (PDZ GRIP1, PDZ Domain 3).

For `CSCC[C@H](NC(=O)[C@H](C)NC(=O)[C@H](CCCNC(=N)N)NC(=O)CNC(=O)[C@@H](NC(=O)[C@H](Cc1c[nH]c2ccccc12)NC(=O)[C@H](CCCNC(=N)N)NC(=O)CNC(=O)CCCC[C@@H]1SC[C@@H]2NC(=O)N[C@@H]21)[C@@H](C)O)C(=O)N[C@@H](CO)C(=O)N[C@@H](C)C(=O)N[C@@H](Cc1c[nH]c2ccccc12)C(=O)N[C@@H](CCCCN)C(=O)N1CCC[C@H]1C(=O)N[C@H](C(=O)N[C@@H](CCCNC(=N)N)C(=O)N[C@@H](CCCNC(=N)N)C(=O)N[C@@H](CCC(=O)O)C(=O)N[C@H](C(=O)N[C@@H](CCC(=O)O)C(=O)N[C@H](C(=O)O)C(C)C)[C@@H](C)O)[C@@H](C)O` [HPV E6 #35 (modified)] (Biotin-GRWTGRAMSAWKPTRRETEV-OH; C-terminus assumed), the Classification in test [1] is 4 (A450 nm 3-4); in test [2], 4 (A450 nm 3-4); in test [3] (PDZ GRIP1, PDZ Domain 3) it was 2 (A450 nm 1-2); in test [3] (PDZ GRIP1, PDZ Domain 6) it was 2 (A450 nm 1-2).

Take `CC(C)C[C@H](NC(=O)[C@H](C)NC(=O)[C@H](CO)NC(=O)CNC(=O)[C@@H](NC(=O)CCCC[C@@H]1SC[C@@H]2NC(=O)N[C@@H]21)[C@@H](C)O)C(=O)N[C@@H](CCC(N)=O)C(=O)N[C@@H](C)C(=O)N[C@@H](Cc1c[nH]c2ccccc12)C(=O)N[C@@H](CCCNC(=N)N)C(=O)N[C@@H](Cc1c[nH]cn1)C(=O)N[C@H](C(=O)N[C@@H](CO)C(=O)N[C@@H](CCCNC(=N)N)C(=O)N[C@@H](CCC(N)=O)C(=O)N[C@@H](C)C(=O)N[C@H](C(=O)N[C@@H](CCC(=O)O)C(=O)N[C@@H](CO)C(=O)N[C@H](C(=O)N[C@H](C(=O)O)C(C)C)[C@@H](C)O)[C@@H](C)O)[C@@H](C)O` [HPV E6 #66 (modified)] (Biotin-TGSALQAWRHTSRQATESTV-OH; C-terminus assumed): in test [2], the Classification was 1 (A450 nm 0-1).

For “PYSELNYETSHYPASPDSWV (Biotin-PYSELNYETSHYPASPDSWV) [catenin - delta 2]”, the figures for the Classification in test [1] and in test [2] were 2 (A450 nm 1-2) and 1 (A450 nm 0-1), respectively.

For the compound TQGFPGPATWRRISSLESEV, the Classification was 5 (A450 nm of 4 more than 2× repeated) in test [1] and 4 (A450 nm 3-4) in test [2].

As to `CC[C@H](C)[C@H](NC(=O)[C@H](CCC(N)=O)NC(=O)CCCC[C@@H]1SC[C@@H]2NC(=O)N[C@@H]21)C(=O)N[C@@H](CO)C(=O)N1CCC[C@H]1C(=O)NCC(=O)NCC(=O)N[C@@H](CC(C)C)C(=O)N[C@@H](CCC(=O)O)C(=O)N1CCC[C@H]1C(=O)N1CCC[C@H]1C(=O)N[C@@H](CO)C(=O)N[C@@H](CCC(=O)O)C(=O)N[C@@H](CCCCN)C(=O)N[C@@H](Cc1c[nH]cn1)C(=O)N[C@@H](Cc1ccccc1)C(=O)N[C@@H](CCCNC(=N)N)C(=O)N[C@@H](CCC(=O)O)C(=O)N[C@H](C(=O)N[C@@H](CCC(=O)O)C(=O)N[C@H](C(=O)O)C(C)C)[C@@H](C)O` [Tax], the Classification in test [1] is on record as 1 (A450 nm 0-1); in test [2], 5 (A450 nm of 4 more than 2× repeated).
